Converted amounts (≈) assume the structure as drawn.
Assays:
Type in all cases: functional
[1] = test system: Helicobacter pylori; experiment: Antibacterial activity against Helicobacter pylori strain 3 assessed as diameter of growth inhibition zone at 32 ug/disk after 3-5 days by filter paper disk diffusion method; details: read-out: DIZ
[2] = test system: Klebsiella pneumoniae; experiment: microbe, parasite or virus in culture; details: ATCC 10031, 24 h
Description: Antibacterial activity against Klebsiella pneumoniae ATCC 10031 assessed as growth inhibition after 24 hr by microdilution method

[3] = test system: Helicobacter pylori; experiment: Antibacterial activity against Helicobacter pylori strain 3 assessed as diameter of growth inhibition zone at 64 ug/disk after 3-5 days by filter paper disk diffusion method; details: read-out: DIZ
[4] = test system: Helicobacter pylori; experiment: Antibacterial activity against Helicobacter pylori strain 1 assessed as diameter of growth inhibition zone at 8 ug/disk after 3-5 days by filter paper disk diffusion method; details: read-out: DIZ
[5] = test system: Pseudomonas aeruginosa; experiment: microbe, parasite or virus in culture; details: ATCC 9027, 24 h
Description: Antibacterial activity against Pseudomonas aeruginosa ATCC 9027 assessed as growth inhibition after 24 hr by microdilution method

[6] = test system: Helicobacter pylori; experiment: Antibacterial activity against Helicobacter pylori strain 2 assessed as diameter of growth inhibition zone at 64 ug/disk after 3-5 days by filter paper disk diffusion method; details: read-out: DIZ
[7] = test system: Bacillus subtilis; experiment: microbe, parasite or virus in culture; details: ATCC 6633, 24 h
Description: Antibacterial activity against Bacillus subtilis ATCC 6633 assessed as growth inhibition after 24 hr by microdilution method

[8] = test system: Helicobacter pylori; experiment: Antibacterial activity against Helicobacter pylori strain 1 assessed as diameter of growth inhibition zone at 32 ug/disk after 3-5 days by filter paper disk diffusion method; details: read-out: DIZ
[9] = test system: Escherichia coli; experiment: microbe, parasite or virus in culture; details: ATCC 8739, 24 h
Description: Antibacterial activity against Escherichia coli ATCC 8739 assessed as growth inhibition after 24 hr by microdilution method

[10] = test system: Helicobacter pylori; experiment: Antibacterial activity against Helicobacter pylori strain 3 assessed as diameter of growth inhibition zone at 8 ug/disk after 3-5 days by filter paper disk diffusion method; details: read-out: DIZ
[11] = test system: Helicobacter pylori; experiment: Antibacterial activity against Helicobacter pylori strain 2 assessed as diameter of growth inhibition zone at 16 ug/disk after 3-5 days by filter paper disk diffusion method; details: read-out: DIZ
[12] = test system: Staphylococcus epidermidis; experiment: microbe, parasite or virus in culture; details: ATCC 12228, 24 h
Description: Antibacterial activity against Staphylococcus epidermidis ATCC 12228 assessed as growth inhibition after 24 hr by microdilution method

[13] = test system: Helicobacter pylori; experiment: Antibacterial activity against Helicobacter pylori strain 1 assessed as diameter of growth inhibition zone at 16 ug/disk after 3-5 days by filter paper disk diffusion method; details: read-out: DIZ
[14] = test system: Helicobacter pylori; experiment: Antibacterial activity against Helicobacter pylori strain 2 assessed as diameter of growth inhibition zone at 32 ug/disk after 3-5 days by filter paper disk diffusion method; details: read-out: DIZ
[15] = test system: Helicobacter pylori; experiment: Antibacterial activity against Helicobacter pylori strain 3 assessed as diameter of growth inhibition zone at 16 ug/disk after 3-5 days by filter paper disk diffusion method; details: read-out: DIZ
[16] = test system: Helicobacter pylori; experiment: Antibacterial activity against Helicobacter pylori strain 1 assessed as diameter of growth inhibition zone at 64 ug/disk after 3-5 days by filter paper disk diffusion method; details: read-out: DIZ
[17] = test system: Helicobacter pylori; experiment: Antibacterial activity against Helicobacter pylori strain 2 assessed as diameter of growth inhibition zone at 8 ug/disk after 3-5 days by filter paper disk diffusion method; details: read-out: DIZ
[18] = test system: Staphylococcus aureus; experiment: microbe, parasite or virus in culture; details: ATCC 6538p, 24 h
Description: Antibacterial activity against Staphylococcus aureus ATCC 6538p assessed as growth inhibition after 24 hr by microdilution method

MIC [2]: > 100 µg/mL
MIC [5]: > 100 µg/mL
MIC [7]: 6.25 µg/mL (≈ 18.3 µM)
MIC [9]: > 100 µg/mL
MIC [12]: 12.5 µg/mL (≈ 36.5 µM)
MIC [18]: 25 µg/mL (≈ 73 µM)
Compound: O=C1N/C(=N\c2nccs2)S/C1=C\C1C(=O)Nc2ccccc21 (stereo not drawn)
zone of inhibition at 32 µg/disc [1]: 14 mm
zone of inhibition at 64 µg/disc [3]: 15 mm
zone of inhibition at 8 µg/disc [4]: 10 mm
zone of inhibition at 64 µg/disc [6]: 20 mm
zone of inhibition at 32 µg/disc [8]: 13 mm
zone of inhibition at 8 µg/disc [10]: 10 mm
zone of inhibition at 16 µg/disc [11]: 14 mm
zone of inhibition at 16 µg/disc [13]: 12 mm
zone of inhibition at 32 µg/disc [14]: 18 mm
zone of inhibition at 16 µg/disc [15]: 10 mm
zone of inhibition at 64 µg/disc [16]: 15 mm
zone of inhibition at 8 µg/disc [17]: 12 mm
